Results on 8 molecules are retold here after US20260365633A1, “Novel PEM Structures for SBX” (Roche Sequencing Solutions, Inc., priority 2023, published 2026).

For assay [1], the system named is DNA polymerase. In words: SBX nanopore sequencing of primer extension products, histogram of aligned reads. In kind it is biochemical. The text has this: To investigate the accuracy of PEM-dependent enhancement of XNTP polymerization, primer extension products were sequenced using the SBX protocol. Briefly, the constrained Xpandomer products of XNTP polymerization are cleaved to generate linearized Xpandomers. This is accomplished by first quenching the extension reaction with a solution containing 100 Mm EDTA, 2 Mm THPTA, and 2% Tween-20. Then the sample is subjected to amine modification with a solution of 1 M NaHCO3 and 1 M succinic anhydride in DMF. Cleavage of the phosphoramidate bonds is carried out with 37% HCl and linearized Xpandomers are purified with QIAquick columns (QIAGEN, Inc.).
For sequencing, protein nanopores are prepared by inserting a-hemolysin into a DphPE/hexadecane bilayer member in buffer B1, containing 2 M NH4Cl and 100 Mm HEPES, Ph 7.4. The cis well is perfused with buffer B2, containing 0.4 M NH4Cl, 0.6 M GuCl, and 100 Mm HEPES, Ph 7.4. The Xpandomer sample is heated to 70 °C for 2 minutes, cooled completely, then a 2 μL sample is added to the cis well. A voltage pulse of 90Mv/390Mv/10 μs is then applied and data is acquired via Labview acquisition software.
Sequence data is analyzed by histogram display of the population of sequence reads from a single SBX reaction. […] Representative histograms of SBX sequencing of a 45mer template are presented in FIG. 6A (no additive control) and FIG. 6B (SBX in the presence of PEM compound 1).

In assay [2] the test system is DNA polymerase. In words: Primer extension with XNTPs, gel electrophoresis (PEM screen, 45mer template). In kind it is biochemical. Conditions: 45mer template, FIG. 4, vs no PEM additive (up to only around 14 XNTPs). The text has this:
The Sequencing by Expansion (SBX) methodology developed by the inventors provides significant performance enhancements in sequence read efficiency and accuracy of Xpandomers relative to native DNA. However, initial transcription of the sequence of the natural DNA template onto the measurable Xpandomer relies on the ability of DNA polymerase to utilize XNTPs as substrates (the generalized structure of an XNTP is discussed herein with reference to FIG. 1A and FIG. 2). […] In an effort to improve the efficiency and accuracy of XNTP polymerization into Xpandomers, several PEMs were screened for the ability to enhance DNA polymerase primer extension reactions using XNTPs as substrates.
A representative primer extension reaction may include the following reagents: 2 pmol primer, 2.2 pmol 45mer [COMPOUND LEFT OUT] template, 50 pmol of each XNTP (XATP, XCTP, XGTP, and XTTP), 50 Mm Tris HCl, Ph 6.79, 200 Mm NaCl, 20% PEG, 5% NMS, 0.5 nmol polyphosphate 60.19, 0.3 Mm MnCl2, and 0.6 μg of purified recombinant DNA polymerase protein. Reactions may be run for 1 hour at 23 °C. Reaction products (i.e., constrained Xpandomers) are treated to cleave the phosphoramidate bonds, thereby generating linearized Xpandomers. Reaction products may be analyzed using gel electrophoresis on 4-12% acrylamide gels to resolve and visualize Xpandomer products of different lengths. For the PEM screen described above, PEMs were typically tested in the micro to millimolar range.

The target of another assay is T1, C4552 DNA polymerase (Saccharolobus solfataricus, UniProt Q97W02, A155G/A42V/D156R/D292Y/D294N/E291S/E324K/E325K/E327K/E79L/G187P/G299W/I153V/I189F/I248T/I295S/K152A/K317Q/K321Q/K56Y/K78D/L293W/M76W/N188Y/P184Q/Q82W/Q83G/R300S/S297Y/S86E/T290K/T301W/V289W/V296Q).
T1 construct: Tth SSB in reaction as additive
T1 sequence (Q97W02 1-340 A155G/A42V/D156R/D292Y/D294N/E291S/E324K/E325K/E327K/E79L/G187P/G299W/I153V/I189F/I248T/I295S/K152A/K317Q/K321Q/K56Y/K78D/L293W/M76W/N188Y/P184Q/Q82W/Q83G/R300S/S297Y/S86E/T290K/T301W/V289W/V296Q): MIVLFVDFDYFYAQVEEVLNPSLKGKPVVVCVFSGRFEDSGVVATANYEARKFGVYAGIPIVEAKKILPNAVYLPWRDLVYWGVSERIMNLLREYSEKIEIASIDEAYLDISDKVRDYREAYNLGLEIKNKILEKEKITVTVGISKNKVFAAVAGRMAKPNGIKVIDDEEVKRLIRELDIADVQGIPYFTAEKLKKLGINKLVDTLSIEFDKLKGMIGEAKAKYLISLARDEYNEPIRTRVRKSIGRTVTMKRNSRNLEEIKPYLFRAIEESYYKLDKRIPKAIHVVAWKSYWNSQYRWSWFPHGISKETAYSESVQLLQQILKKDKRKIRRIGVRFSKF
In words: Primer extension on HIV1, HIV2, HIV3 100mer templates with C4552 polymerase, gel. The class given is biochemical, Sulfolobus solfataricus. Conditions: 0.5 Mm PEM, 30 minutes at 23 °C, three 100mer templates, FIG. 9. As to the method: PEM activity of compounds 9-11 was tested in primer extension assays using three 100mer templates, derived from the HIV1, 2, and 3 genomes. Primer extension reactions included the following reagents: 75 Mm TrisCl, Ph 8.44, 175 Mm NH40ac, 20% PEG8K, 5% NMS, 0.8 nmol PP-60.20, 0.6 Mm MnCl2, 2.3 μg Tth single-strand binding protein (SSB), 0.5 M or 1 M urea, 200 pmol each XNTP, 1.1 pmol template, 1 pmol [COMPOUND LEFT OUT] primer, 1.2 μg purified recombinant C4552 DNA polymerase, and 0.5 Mm PEM. 10 μL primer extension reactions were run for 30 minutes at 23 °C and reaction products were analyzed by gel electrophoresis.

Assay [3] deals with T2, C4760 DNA polymerase (a variant of DPO4) (Saccharolobus solfataricus, UniProt Q97W02, A155G/A42V/D156R/D292Y/D294N/E291S/E324K/E325K/E327K/E63R/E79L/G187P/G299W/I153V/I189F/I248T/I295S/K152A/K317Q/K321Q/K56Y/K78D/L293W/M76W/N188Y/P184Q/Q82W/Q83G/R300S/S297Y/S86E/T290K/T301W/V289W/V296Q).
T2 construct: Eco or Kod SSB in reaction as additive
T2 sequence (Q97W02 1-340 A155G/A42V/D156R/D292Y/D294N/E291S/E324K/E325K/E327K/E63R/E79L/G187P/G299W/I153V/I189F/I248T/I295S/K152A/K317Q/K321Q/K56Y/K78D/L293W/M76W/N188Y/P184Q/Q82W/Q83G/R300S/S297Y/S86E/T290K/T301W/V289W/V296Q): T1 sequence (Q97W02 1-340 A155G/A42V/D156R/D292Y/D294N/E291S/E324K/E325K/E327K/E79L/G187P/G299W/I153V/I189F/I248T/I295S/K152A/K317Q/K321Q/K56Y/K78D/L293W/M76W/N188Y/P184Q/Q82W/Q83G/R300S/S297Y/S86E/T290K/T301W/V289W/V296Q) with E63R
Description: Primer extension on 411mer amplicon template with C4760 polymerase, gel. The class given is biochemical, Sulfolobus solfataricus. As for the experimental part:
PEM activity of compound 15 was tested in primer extension assays using a 411mer amplicon template. Primer extension reactions included the following reagents: 50 Mm TrisCl, 200 Mm NH40ac, 20% PEG8K, 5% NMS, 3 nmol PP-60.20, 2 Mm MnCl2, 2 μg Kod single-strand binding protein (SSB), 1 M urea, 250 pmol each XNTP, 1 pmol template, 1 pmol [COMPOUND LEFT OUT] primer, 1.2 μg purified recombinant C4760 DNA polymerase (a variant of DPO4, see SEQ ID NO: 2), and 2 (lane 2) or 3 (lane 3) Mm PEM. 10 μL primer extension reactions were run for 20 minutes at 37 °C and reaction products were analyzed by gel electrophoresis. A representative gel showing primer extension products is presented in FIG. 12 (the position of a 277mer is indicated by the arrow). […] Remarkably, the polymerase is completely dependent upon the addition of PEM to the reaction in order to be capable of synthesizing these lengthy Xpandomer products. Even longer extension products may be obtained by optimizing various reaction parameters, e.g., extension time and/or concentrations of various additives.
PEM activity of compound 19, was tested in primer extension assays using the 411mer amplicon template. […] 10 μL primer extension reactions were run for 30 minutes at 37 °C and reaction products were analyzed by gel electrophoresis. […]

The next assay deals with nucleic acid polymerase. In words: PEM activity summary: primer extension on 45mer, 100mer, 150mer, 222mer DNA templates, gel (Table 2). In kind it is biochemical. Conditions: preliminary functional characterization. As to the method: In some instances, the PEM compounds of the present disclosure were tested in primer extension reactions using DNA templates of the following lengths: A) 45mer; B) 100mer; C) 150mer; and D) 222mer.

Numbering of substitutions follows the chain as printed.

Regarding `O=C(O)c1ccc(-n2cc(-c3cccc(-c4cn(-c5ccc(C(=O)O)c(O)c5)nn4)n3)nn2)cc1O` [Compound 1, 4,4′-(pyridine-2,6-diylbis(1H-1,2,3-triazole-4,1-diyl))bis(2-hydroxybenzoic acid)], the “accuracy of sequence reads” value in the assay with DNA polymerase [1] (45mer template, FIG. 6B, vs no additive (not accurate past around base 18)) is reported as “increased the accuracy of the sequence reads across the entire length of the 45mer template”. Further, the sequence reads entry in the assay on DNA polymerase [1] (60mer template, FIG. 7A) is reported as “accurate sequence reads completely to the end”; with DNA polymerase [1] (80mer template, FIG. 7B), “accurate sequence reads completely to the end”. The “primer extension products with XNTPs” value in the assay with DNA polymerase [2] is given as “considerably longer extension products”.
Turning to `COc1cc(-c2cn(-c3ccc(C(=O)O)c(O)c3)nn2)nc(-c2cn(-c3ccc(C(=O)O)c(O)c3)nn2)c1` [Compound 9, 4,4′-((4-methoxypyridine-2,6-diyl)bis(1H-1,2,3-triazole-4,1-diyl))bis(2-hydroxybenzoic acid)], the “XNTP polymerization efficiency relative to compound 1” value on C4552 DNA polymerase is “at least as efficiently as compound 1”.
Still for that read-out and setting: the result for `O=C(O)c1ccc(-n2cc(-c3cc([N+](=O)[O-])cc(-c4cn(-c5ccc(C(=O)O)c(O)c5)nn4)n3)nn2)cc1O` [Compound 11, 4,4′-((4-nitropyridine-2,6-diyl)bis(1H-1,2,3-triazole-4,1-diyl))bis(2-hydroxybenzoic acid)] reads “at least as efficiently as compound 1”.
In the case of `CCOC(=O)c1cc(-c2cn(-c3ccc(O)c(C(=O)O)c3)nn2)nc(-c2cn(-c3ccc(O)c(C(=O)O)c3)nn2)c1` [Compound 15, 5,5′-((4-(ethoxycarbonyl)pyridine-2,6-diyl)bis(1H-1,2,3-triazole-4,1-diyl))bis(2-hydroxybenzoic acid)], the “XNTP polymerization relative to compound 14” value in assay [3] (2 or 3 Mm PEM, 20 minutes at 37 °C, FIG. 12) was “comparable to that of compound 14”.
`NC(=O)c1cc(-c2cn(-c3ccc(C(=O)O)c(O)c3)nn2)nc(-c2cn(-c3ccc(C(=O)O)c(O)c3)nn2)c1` [Compound 19, 4,4′-((4-carbamoylpyridine-2,6-diyl)bis(1H-1,2,3-triazole-4,1-diyl))bis(2-hydroxybenzoic acid)]: the “XNTP polymerization relative to compound 14” value in assay [3] (0.5, 1, or 1.5 Mm PEM, 30 minutes at 37 °C, FIG. 14) is reported as “less efficient than that of compound 14”.
`O=C(O)c1ccc(-n2cc(-c3cccc(-c4cn(-c5ccc(C(=O)O)c(O)c5)nn4)c3)nn2)cc1` [Compound 176, 4-(4-{m-[1-(p-Carboxyphenyl)-1H-1,2,3-triazol-4-yl]phenyl}-1H-1,2,3-triazol-1-yl)-2-hydroxybenzoic acid]: the “Functional Category: PEM effect” value in the assay with nucleic acid polymerase was “PEM effect”.
Still for that read-out and setting: the same measure for `CCNC(=O)c1cc(-c2cn(-c3ccc4cc(C(=O)O)ccc4c3)nn2)nc(-c2cn(-c3ccc4cc(C(=O)O)ccc4c3)nn2)c1` [Compound 206, 6-(4-{6-[1-(6-Carboxy-2-naphthyl)-1H-1,2,3-triazol-4-yl]-4-(N-ethylcarbamoyl)-2-pyridyl}-1H-1,2,3-triazol-1-yl)-2-naphthoic acid]: “PEM effect”; for `CCNC(=O)c1cc(-c2cn(-c3ccc(C(=O)NCC)c(C(F)(F)F)c3)nn2)nc(-c2cn(-c3ccc(C(=O)NCC)c(C(F)(F)F)c3)nn2)c1` [Compound 236, N-Ethyl-2,6-bis{1-[4-(N-ethylcarbamoyl)-3-(trifluoromethyl)phenyl]-1H-1,2,3-triazol-4-yl}isonicotinamide]: “PEM effect”.
